Results: ChEMBL document CHEMBL1667820, “Synthesis and antitubercular evaluation of novel substituted aryl and thiophenyl tethered dihydro-6H-quinolin-5-ones” (2011)
In brackets after ≈: the same amount, converted by molar mass.

Test system: Mycobacterium tuberculosis
Test: Antimycobacterial activity against Mycobacterium tuberculosis H37Rv by agar dilution method
Type: functional

Structure (SMILES) | MIC
O=C1CCCc2nc(-c3ccccc3)ccc21 | 12.5 µg/mL (≈ 56 µM)
Cc1ccc(-c2ccc3c(n2)CCCC3=O)cc1 | 12.5 µg/mL (≈ 52.7 µM)
COc1ccc(-c2ccc3c(n2)CCCC3=O)cc1 | 12.5 µg/mL (≈ 49.3 µM)
O=C1CCCc2nc(-c3cccs3)ccc21 | 12.5 µg/mL (≈ 54.5 µM)
O=C1CCCc2nc(-c3ccc(Cl)s3)ccc21 | 6.25 µg/mL (≈ 23.7 µM)
O=C1CCCc2nc(-c3ccc(Br)s3)ccc21 | 6.25 µg/mL (≈ 20.3 µM)
CC1(C)CC(=O)c2ccc(-c3ccccc3)nc2C1 | 12.5 µg/mL (≈ 49.7 µM)
Cc1ccc(-c2ccc3c(n2)CC(C)(C)CC3=O)cc1 | 6.25 µg/mL (≈ 23.6 µM)
COc1ccc(-c2ccc3c(n2)CC(C)(C)CC3=O)cc1 | 12.5 µg/mL (≈ 44.4 µM)
CC1(C)CC(=O)c2ccc(-c3cccs3)nc2C1 | 6.25 µg/mL (≈ 24.3 µM)
CC1(C)CC(=O)c2ccc(-c3ccc(Cl)s3)nc2C1 | 3.13 µg/mL (≈ 10.7 µM)
CC1(C)CC(=O)c2ccc(-c3ccc(Br)s3)nc2C1 | 3.13 µg/mL (≈ 9.31 µM)
O=C1c2ccc(-c3ccccc3)nc2CCC1(CO)CO | > 25 µg/mL
Cc1ccc(-c2ccc3c(n2)CCC(CO)(CO)C3=O)cc1 | > 25 µg/mL
COc1ccc(-c2ccc3c(n2)CCC(CO)(CO)C3=O)cc1 | > 25 µg/mL
O=C1c2ccc(-c3cccs3)nc2CCC1(CO)CO | > 25 µg/mL
O=C1c2ccc(-c3ccc(Cl)s3)nc2CCC1(CO)CO | > 25 µg/mL
O=C1c2ccc(-c3ccc(Br)s3)nc2CCC1(CO)CO | > 25 µg/mL
CC[C@@H](CO)NCCN[C@@H](CC)CO [ETHAMBUTOL] | 3.13 µg/mL (≈ 15.3 µM)
NNC(=O)c1ccncc1 [ISONIAZID] | 0.1 µg/mL (≈ 0.729 µM)
NC(=O)c1cnccn1 [PYRAZINAMIDE] | 50 µg/mL (≈ 406 µM)
